Some results are limits rather than exact numbers.

As a reminder, the EC50 is the concentration that produces a half-maximal response.

The target in the experiment is T1, GLP-1R (Homo sapiens, UniProt P43220).
T1 construct: host or cells: GLP-1R CRE-bla CHO-K1 cells
T1 sequence (P43220 24-463): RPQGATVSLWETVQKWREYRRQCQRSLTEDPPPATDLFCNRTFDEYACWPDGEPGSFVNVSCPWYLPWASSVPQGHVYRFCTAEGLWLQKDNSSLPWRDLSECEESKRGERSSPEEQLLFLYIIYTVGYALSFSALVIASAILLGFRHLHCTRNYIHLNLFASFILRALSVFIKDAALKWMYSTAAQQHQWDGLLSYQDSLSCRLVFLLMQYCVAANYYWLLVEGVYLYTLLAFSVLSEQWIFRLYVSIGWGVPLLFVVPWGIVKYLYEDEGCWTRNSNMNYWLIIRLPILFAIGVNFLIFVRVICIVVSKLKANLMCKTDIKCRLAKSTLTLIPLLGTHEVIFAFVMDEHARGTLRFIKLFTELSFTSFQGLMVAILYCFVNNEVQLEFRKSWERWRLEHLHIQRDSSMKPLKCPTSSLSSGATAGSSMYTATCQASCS
T1 sequence (P01275 100-127 partner limits assumed): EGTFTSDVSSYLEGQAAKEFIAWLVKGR
Nature of the experiment: EC20 GLP-1(9-36) PAM cAMP assay: dose response of compound in the presence of fixed concentration of GLP-1(9-36). It counts as cell-based. The settings on record: dose response of compound in presence of fixed concentration of GLP-1(9-36), GLP-1R CRE-bla CHO-K1 cells, read-out: EC20 GLP-1(9-36) PAM EC50. How it is done: EC20 GLP-1(9-36) PAM cAMP Assay: Dose Response of Compound in the Presence of Fixed Concentration of GLP-1 (9-36).
GLP-1R CRE-bla CHO-K1 cells cultured in growth medium (DMEM-High glucose, 10% dialyzed FBS, 0.1 mM NEAA, 25 mM Hepes, 100 U/mL penicillin/100 μg/mL streptomycin, 5 μg/mL Blasticidin, 600 μg/mL Hygromycin) were trypsinized and plated in suspension into 384 well white flat bottom plates at 5000 cells/well in 12 μL assay buffer (Hanks Balanced Salt solution, 10 mM hepes, 0.1% BSA, pH 7.4). A 5× compound dose response curve (12-point) was generated in assay buffer containing 1.5 mM IBMX, 4% DMSO. GLP-1(9-36) was diluted to 4.2 μM in assay buffer containing 1.5 mM IMBX and 4% DMSO. The 5× compound dose response was added (3 μL), followed by 0.5 μL of GLP-1(9-36) and cells were incubated for 30 min at 37° C. Direct detection of cAMP was carried out using DiscoveRx HitHunter cAMP kit according to manufacturer's instructions and luminescence was read using a SpectraMax M5 plate reader. Luminescence was converted to total cAMP using a cAMP standard curve and data was analyzed by non-linear regression to determine the EC50 and Emax.
GLP-1(7-36): […]-NH2 (SEQ ID NO: 2). GLP-1(9-36): […]-NH2 (SEQ ID NO: 3). GLP-1(7-36) was purchased from GenScript. GLP-1(9-36) was purchased from Biopeptide Co., Inc.
The EC20GLP-1(9-36) PAM Activity range is denoted as follows: + denotes activity <0.8 μM, ++ denotes activity between 0.8 and 2.5 μM, +++ denotes activity between 2.5 and 5 μM, and ++++ denotes activity 5 to 10 μM.
As for `CCCCCCCOc1ccc(-c2cnc(-c3ccc(C[C@H](NC(=O)c4ccc(C(C)C)cc4)C(=O)NCCC(=O)O)cc3)nc2)cc1` [Compound 446], the EC50 lay within 800 to 2500 nM.

Regarding `CCCCCCCOc1ccc(-c2cnc(-c3ccc(C[C@H](NC(=O)c4ccc(C(C)(C)C)cc4)C(=O)NC(CN(C)C)C(=O)O)cc3)nc2)cc1` (stereo partly drawn) [Compound 447], the EC50 lay in the range of 800 to 2500 nM.

On to `CCCCCCCOc1ccc(-c2cnc(-c3ccc(C[C@H](NC(=O)c4ccc(C(C)(C)C)s4)C(=O)N4CCC(C(=O)O)CC4)cc3)nc2)cc1` [Compound 448], for which the EC50 is less than 800 nM.

`CCCCCCCOc1ccc(-c2cnc(-c3ccc(C[C@H](NC(=O)c4ccc(C(C)(C)C)cc4)C(=O)N[C@H](C(=O)O)[C@@H](C)CC)cc3)nc2)cc1` [Compound 449]: the half-maximal effective concentration (EC50) fell in the range of 800 to 2500 nM.

As for `CCCCCCCOc1ccc(-c2cnc(-c3ccc(C[C@H](NC(=O)c4ccc(C(C)(C)C)cc4)C(=O)N[C@H](C(=O)O)[C@@H](C)O)cc3)nc2)cc1` [Compound 450], the EC50 is less than 800 nM.

On to `CCCCCCCOc1ccc(-c2cnc(-c3ccc(C[C@H](NC(=O)c4ccc(C(C)(C)C)cc4)C(=O)N[C@@H](Cc4ccc(O)cc4)C(=O)O)cc3)nc2)cc1` [Compound 451], for which the 50% effective concentration (EC50) is less than 800 nM.

Consider `CCCCCCCOc1ccc(-c2cnc(-c3ccc(C[C@H](NC(=O)c4ccc(C(C)(C)C)cc4)C(=O)N[C@@H](CN)C(=O)O)cc3)nc2)cc1` [Compound 452], for which the EC50 lay in the range of 2500 to 5000 nM.

For `CCCCCCCOc1ccc(-c2cnc(-c3ccc(C[C@H](NC(=O)c4ccc(C(C)(C)C)cc4)C(=O)NC(C(=O)O)c4ccc(C(F)(F)F)cc4)cc3)nc2)cc1` (stereo partly drawn) [Compound 453], the EC50 was 800 to 2500 nM.

As for `CCCCCCCOc1ccc(-c2cnc(-c3ccc(C[C@H](NC(=O)c4ccc(C(C)(C)C)cc4)C(=O)NC(C(=O)O)c4ccc(C)cc4)cc3)nc2)cc1` (stereo partly drawn) [Compound 454], the concentration for a half-maximal effect (EC50) lay within 800 to 2500 nM.

`CCCCCCCOc1ccc(-c2cnc(-c3ccc(C[C@H](NC(=O)c4ccc(C(C)(C)C)cc4)C(=O)NC(C(=O)O)c4cccs4)cc3)nc2)cc1` (stereo partly drawn) [Compound 455]: the 50% effective concentration (EC50) was less than 800 nM.

As for `CC(C)CCOc1ccc(-c2cnc(-c3ccc(C[C@H](NC(=O)c4ccc(C(C)(C)C)cc4)C(=O)NCCC(=O)O)cc3)nc2)cc1` [Compound 456], the half-maximal effective concentration (EC50) is 800 to 2500 nM.

On to `CCCCOCCOc1ccc(-c2cnc(-c3ccc(C[C@H](NC(=O)c4ccc(C(C)(C)C)cc4)C(=O)NCCC(=O)O)cc3)nc2)cc1` [Compound 457], for which the EC50 fell in the range of 2500 to 5000 nM.

Turning to `CC(C)CCCOc1ccc(-c2cnc(-c3ccc(C[C@H](NC(=O)c4ccc(C(C)(C)C)cc4)C(=O)NCCC(=O)O)cc3)nc2)cc1` [Compound 458], the EC50 was in the range of 800 to 2500 nM.

On to `CCCCCCCOc1ccc(-c2cnc(-c3ccc(CC(NC(=O)c4ccc(C(C)(C)C)s4)C(=O)NCCCCC(=O)O)cc3)nc2)cc1` (stereo not drawn) [Compound 459], for which the concentration for a half-maximal effect (EC50) was in the range of 800 to 2500 nM.

In the case of `CCCCCCCOc1ccc(-c2cnc(-c3ccc(CC(NC(=O)c4ccc(C(C)(C)C)s4)C(=O)NCCCCCC(=O)O)cc3)nc2)cc1` (stereo not drawn) [Compound 460], the EC50 was in the range of 5000 to 10000 nM.

For the compound `CCCCCCCOc1ccc(-c2cnc(-c3ccc(C[C@H](NC(=O)c4ccc(C(C)(C)C)s4)C(=O)NC[C@@H](CO)C(=O)O)cc3)nc2)cc1` [Compound 461], the EC50 was 800 to 2500 nM.

As for `CCCCCCCOc1ccc(-c2cnc(-c3ccc(C[C@H](NC(=O)c4ccc(C(C)(C)C)s4)C(=O)NCC(O)CO)cc3)nc2)cc1` (stereo partly drawn) [Compound 462], the EC50 was 5000 to 10000 nM.

In the case of `CCCCCCCOc1ccc(-c2cnc(-c3ccc(C[C@H](NC(=O)c4ccc(C(C)(C)C)s4)C(=O)NCC4CCNCC4)cc3)nc2)cc1` [Compound 463], the EC50 was 5000 to 10000 nM.

Take `CCCCCCCOc1ccc(-c2cnc(-c3ccc(C[C@H](NC(=O)c4ccc(C(C)(C)C)s4)C(=O)N4CCC(NC)CC4)cc3)nc2)cc1` [Compound 464]: the EC50 is 5000 to 10000 nM.

For `CCCCCCCOc1ccc(-c2cnc(-c3ccc(C[C@H](NC(=O)c4ccc(C(C)(C)C)cc4)C(=O)N[C@H](CN)C(=O)O)cc3)nc2)cc1` [Compound 465], the EC50 lay in the range of 800 to 2500 nM.

In the case of `CCCCCCCOc1ccc(-c2cnc(-c3ccc(C[C@H](NC(=O)c4ccc(C(C)(C)C)cc4)C(=O)N[C@H](CCCCN)C(=O)O)cc3)nc2)cc1` [Compound 466], the EC50 is 800 to 2500 nM.

Regarding `CCCCCCCOc1ccc(-c2cnc(-c3ccc(C[C@H](NC(=O)c4ccc(C(C)(C)C)cc4)C(=O)NC(Cn4cncn4)C(=O)O)cc3)nc2)cc1` (stereo partly drawn) [Compound 467, 2-((S)-2-(4-(tert-butyl)benzamido)-3-(4-(5-(4-(heptyloxy)phenyl)pyrimidin-2-yl)phenyl)propanamido)-3-(1H-1,2,4-triazol-1-yl)propanoic acid], the concentration giving a half-maximal response (EC50) was less than 800 nM.

For the compound `CCCCCCCOc1ccc(-c2cnc(-c3ccc(C[C@H](NC(=O)c4ccc(C(C)(C)C)cc4)C(=O)NC(C(=O)O)c4cccnc4)cc3)nc2)cc1` (stereo partly drawn) [Compound 468], the concentration for a half-maximal effect (EC50) was less than 800 nM.

As for `CCCCCCCOc1ccc(-c2cnc(-c3ccc(C[C@H](NC(=O)c4ccc(C(C)(C)C)cc4)C(=O)N[C@@H](CCCN)C(=O)O)cc3)nc2)cc1` [Compound 469], the half-maximal effective concentration (EC50) was in the range of 800 to 2500 nM.

Consider `CCCCCCCOc1ccc(-c2cnc(-c3ccc(C[C@H](NC(=O)c4cc(C)cs4)C(=O)O)cc3)nc2)cc1` [Compound 470], for which the concentration for a half-maximal effect (EC50) is less than 800 nM.

With `COCCCCCOc1ccc(-c2cnc(-c3ccc(C[C@H](NC(=O)c4ccc(C(C)(C)C)cc4)C(=O)NCCC(=O)O)cc3)nc2)cc1` [Compound 471], the EC50 lay within 5000 to 10000 nM.

As for `CC(C)CCCCOc1ccc(-c2cnc(-c3ccc(C[C@H](NC(=O)c4ccc(C(C)(C)C)cc4)C(=O)NCCC(=O)O)cc3)nc2)cc1` [Compound 472, (S)-3-(2-(4-(tert-butyl)benzamido)-3-(4-(5-(4-((5-methylhexyl)oxy)phenyl)-pyrimidin-2-yl)phenyl)propanamido)propanoic acid], the EC50 is 800 to 2500 nM.

Regarding `CCC(C)COc1ccc(-c2cnc(-c3ccc(C[C@H](NC(=O)c4ccc(C(C)(C)C)cc4)C(=O)NCCC(=O)O)cc3)nc2)cc1` (stereo partly drawn) [Compound 473], the EC50 was 5000 to 10000 nM.

In the case of `CC(C)(C)c1ccc(C(=O)N[C@@H](Cc2ccc(-c3ncc(-c4ccc(OCCC5CCCCC5)cc4)cn3)cc2)C(=O)NCCC(=O)O)cc1` [Compound 474, (S)-3-(2-(4-(tert-butyl)benzamido)-3-(4-(5-(4-(2-cyclohexylethoxy)phenyl)-pyrimidin-2-yl)phenyl)propanamido)propanoic acid], the 50% effective concentration (EC50) fell in the range of 800 to 2500 nM.

`CCCCCCCOc1ccc(-c2cnc(-c3ccc(C[C@H](NC(=O)c4ccc(C(C)(C)C)cc4)C(=O)N[C@@H](CCN)C(=O)O)cc3)nc2)cc1` [Compound 475]: the EC50 was in the range of 800 to 2500 nM.

As for `CCCCCCCOc1ccc(-c2cnc(-c3ccc(C[C@H](NC(=O)c4ccc(C(C)(C)C)cc4)C(=O)N[C@H](CCN)C(=O)O)cc3)nc2)cc1` [Compound 476], the concentration giving a half-maximal response (EC50) lay within 2500 to 5000 nM.

`CCCCCCCOc1ccc(-c2cnc(-c3ccc(C[C@H](NC(=O)c4ccc(C(C)(C)C)cc4)C(=O)N[C@@H](CC(=O)NC)C(=O)O)cc3)nc2)cc1` [Compound 477, N^2—((S)-2-(4-(tert-butyl)benzamido)-3-(4-(5-(4-(heptyloxy)phenyl)pyrimidin-2-yl)phenyl)propanoyl)-N^4-methyl-L-asparagine]: the concentration giving a half-maximal response (EC50) was less than 800 nM.

As to `CCCCCCCOc1ccc(-c2cnc(-c3ccc(C[C@H](NC(=O)c4ccc(C(C)(C)C)cc4)C(=O)N[C@@H](CC(=O)N(C)C)C(=O)O)cc3)nc2)cc1` [Compound 478], the EC50 is less than 800 nM.

Turning to `CCCCCCCOc1ccc(-c2cnc(-c3ccc(C[C@H](NC(=O)c4ccc(C(C)(C)C)cc4)C(=O)N[C@@H](CC(=O)NC4CC4)C(=O)O)cc3)nc2)cc1` [Compound 479], the EC50 is less than 800 nM.

Turning to `CCCCCCCOc1ccc(-c2cnc(-c3ccc(C[C@H](NC(=O)c4ccc(C(C)(C)C)cc4)C(=O)N[C@@H](CC(=O)NCC(=O)O)C(=O)O)cc3)nc2)cc1` [Compound 480], the EC50 fell in the range of 800 to 2500 nM.

With `CCCCCCCOc1ccc(-c2cnc(-c3ccc(C[C@H](NC(=O)c4ccc(C(C)(C)C)cc4)C(=O)N[C@@H](CC(=O)N[C@@H](CO)C(=O)O)C(=O)O)cc3)nc2)cc1` [Compound 481], the concentration for a half-maximal effect (EC50) fell in the range of 800 to 2500 nM.

In the case of `CCCCCCCOc1ccc(-c2cnc(-c3ccc(C[C@H](NC(=O)c4ccc(C(C)(C)C)cc4)C(=O)N[C@@H](CC(=O)NCC(N)=O)C(=O)O)cc3)nc2)cc1` [Compound 482], the EC50 was less than 800 nM.

In the case of `CCCCCCCOc1ccc(-c2cnc(-c3ccc(C[C@H](NC(=O)c4ccc(C(C)(C)C)cc4)C(=O)N[C@@H](CC(=O)N[C@@H](C)C(=O)O)C(=O)O)cc3)nc2)cc1` [Compound 483], the EC50 fell in the range of 800 to 2500 nM.

Consider `CCCCCCCOc1ccc(-c2cnc(-c3ccc(C[C@H](NC(=O)c4ccc(C(C)(C)C)cc4)C(=O)N[C@@H](CC(=O)NCCN)C(=O)O)cc3)nc2)cc1` [Compound 484], for which the EC50 fell in the range of 800 to 2500 nM.
